Measurements published in BindingDB's records for doi:10.1016/j.ejmech.2020.112529 (Jagiellonian University, 2020).

Target: 5-HT2A receptor (Homo sapiens)
Assay: Displacement of [3H]-Ketanserin from human 5-HT2A receptor expressed in CHO-K1 cells incubated for 1 hr by microbeta counting method

Ki [nM] | SMILES
839 | CCCCC(Oc1cc(Cl)cc(Cl)c1)c1nc(N)nc(N2CCN(C)CC2)n1 (configuration not stated)
906 | CN1CCN(c2nc(N)nc(CCCOc3ccc(Cl)c(Cl)c3)n2)CC1
1830 | CC(Oc1ccccc1Cl)c1nc(N)nc(N2CCN(C)CC2)n1 (configuration not stated)

More lines, now with the values behind:

SMILES | Ki [nM]
CC(Oc1cccc(Cl)c1Cl)c1nc(N)nc(N2CCN(C)CC2)n1 (configuration not stated) | 268
CN1CCN(c2nc(N)nc(CCCOc3cc(Cl)ccc3Cl)n2)CC1 | 1460
CN1CCN(c2nc(N)nc(CCCOc3cccc(Cl)c3Cl)n2)CC1 | 649
CCCCC(Oc1cc(Cl)ccc1Cl)c1nc(N)nc(N2CCN(C)CC2)n1 (configuration not stated) | 431
